From patent US12195551B2, “Combination of an ErbB-2/ErbB-3 bispecific antibody with endocrine therapy for breast cancer” (Merus N.V., priority 2017, dated 2025)
Several values for one entry are separate records, joined by “and”; a condition that tells them apart may be missing. Equal entries are not always repeated. Entries after “also recorded” stand apart in the source; their conditions may differ.

Experiments:
[1] = tested on: MCF-7 human breast carcinoma; assay: Efficacy in nude mouse xenograft model of MCF-7 human breast carcinoma; type: in vivo; conditions: for % TGI (tumor growth inhibition): D25, relative to the control group, Faslodex 5.0 mg/animal, Tamoxifen 1 mg/animal; for % TGI (tumor growth inhibition) / median tumor volume: MCLA-128 25 mg/kg i.p.; for median tumor volume: D25, Faslodex 5.0 mg/animal s.c. qwk×5, Tamoxifen 1 mg/animal s.c. qod×15; for P relative to the control group: D25 tumor volumes, Mann-Whitney test; for anti-tumor efficacy / survival benefit (in words): MCF-7 nude mouse xenograft model; for Volume (mm^3) of xenograft MCF-7 tumors / Weight (mgs) of xenograft MCF-7 tumors: individual tumors of sampling groups 8-10 for pharmacodynamic analysis, 8 day treatment, harvested 24 hours after last dose
Experimental: MCLA-128 was evaluated as monotherapy and in combination with the SERM Tamoxifen and SERD Fulvestrant (Faslodex®) for efficacy in a nude mouse xenograft model of estrogen responsive MCF-7 human breast carcinoma. The study design also included tumor collection for downstream analysis.
Treatments began on D1 in mice with established subcutaneous MCF-7 tumors. The study endpoint was intended to be a tumor volume endpoint of 1000 mm3 45 days, whichever came first. […] Tumor regressions, mean tumor growth, and treatment tolerability also were considered.
The animals were fed ad libitum water (reverse osmosis, 1 ppm Cl) and NIH 31 Modified and Irradiated Lab Diet® consisting of 18.0% crude protein, 6.0% crude fat, and 5.0% crude fiber. The mice were housed on irradiated Enrich-o'Cobs™ Laboratory Animal Bedding in static 85 microisolators on a 12-hour light cycle at […] (68-72° F.) and 40-60% humidity.
Three days prior to tumor cell implantation, estrogen pellets (0.36 mg estradiol, 60-day release, Innovative Research of America, Sarasota, FL) were implanted subcutaneously between the scapulae of all test animals using a sterilized trocar.
Xenografts were initiated with cultured MCF-7 human breast carcinoma cells. Tumor cells were grown to mid-log phase in RPMI-1640 medium containing 10% fetal bovine serum, 100 units/mL penicillin G, 100 μg/mL streptomycin sulfate, 2 mM glutamine, 10 mM HEPES, 0.075% sodium bicarbonate and 25 μg/mL gentamicin. On the day of tumor cell implant, the cells were trypsinized, pelleted, and resuspended in phosphate buffered saline (PBS) at a concentration of 1×10e8 cells/mL. Each test mouse received 1×10e7 MCF-7 cells implanted subcutaneously in the right flank, and tumor growth was monitored as their mean volume approached the desired 100 to 150 mm3 range.
Nineteen days after tumor cell implantation, designated as D1 of the study, the mice were placed into six groups of 15 animals and four groups of six animals, Individual tumor volumes ranged from 75 to 196 mm3 and group mean tumor volumes of 134-137 mm3 on D1. Tumor weight was estimated with the assumption that 1 mg is equivalent to 1 mm3 of tumor volume.
MCLA-128 was stored at 4° C., was provided pre-formulated at 2.5 mg/mL and ready to dose as 25 mg/kg in a 10 mL/kg dose volume, and was protected from light during storage and handling. Tamoxifen (Sigma-25 Aldrich. Lot No. WXBB5732V) was received as a powder and was stored at 4° C. protected from light. Each week, a 5 mg/mL dose solution was prepared in corn oil, and each mouse received 0.2 mL for a dose of 1 mg/animal. The dose solution was stored at 4° C. Fulvestrant tradename Faslodex® (AstraZeneca, Lot No. LV032, LW466, and LX432) was received as 50 mg/mL stock solution that was stored at 4° C. Each dosing day, the stock was diluted in corn oil to 25 mg/mL, and each mouse received 0.2 mL for a dose of 5 mg/animal.
Groups 1 and 7 served as controls for efficacy and sampling, respectively, and received MCLA-128 vehicle intraperitoneally (i.p.) on D1, 4, 8, 11, 15, 18, 22, 25, and 29 and corn oil subcutaneously (s.c.) every other day for fifteen doses (qod×15). Groups 2 and 8 were administered MCLA-128 at 25 mg/kg, i.p., on the same schedule as MCLA-128 vehicle. Groups 3 and 9 were administered Faslodex® at 5.0 mg/animal, s.c., once weekly for five weeks (qwk×5). Group 4 was administered Tamoxifen at 1 mg/animal, s.c., qod×15. Groups 5 and 10 received MCLA-128 and Faslodex®, on the regimens described above. Group 6 received MCLA-128 and Tamoxifen on the regimens described above.
MCLA-128 was administered at a 10 mL/kg dose volume, scaled to the individual body weight of each animal.

HER2:HER3 dimers = assay: VeraTag assay HER2:HER3 dimers in MCF-7 xenograft tumors; type: in vivo, human
Experimental: (§3) Modulation of levels of total HER2, total HER3 and HER2:HER3 dimers in MCF-7 tumors after 8 day treatment period. […] 24 hours after the last dose, tumors were harvested, processed to FFPE and subjected to VeraTag analysis for the indicated assays. Five independent tumors per treatment group were used for the final analysis. A statistical t-test compared all groups independently. * indicates P<0.01.
(§4) All formalin-fixed tumors from example 2 were processed to FFPE blocks. The initial VeraTag assay analysis (round 1) was performed with 3 tumors per group
(§5) Prior to the VeraTag analysis, tumors were sectioned and stained with hematoxylin-eosin to determine the percentage of tumor content. Microlaser capture was used to grossly remove any non-tumor content. The initial round of analysis included the following five VeraTag assays: total HER2, total HER3, HER2:HER3 dimers, HER3-PI3K complexes and phosphorylated HER3.
(§6) The tumors analyzed in Round 1 that had scores close to the average value of the specific assays were included in Round 2 to estimate the inter-assay reproducibility and to ensure the data from the two independent experiments could be combined.

total HER3 = assay: VeraTag assay total HER3 in MCF-7 xenograft tumors; type: in vivo, human; conditions: data from both rounds combined; 8 day treatment
Experimental: as §3, §4, §5, §6

phosphorylated HER3 = assay: VeraTag assay phosphorylated HER3 in MCF-7 xenograft tumors; type: in vivo, human; conditions: round 1
Experimental: (§7) The initial VeraTag assay analysis (round 1) was performed with 3 tumors per group
as §5

HER3-PI3K complexes = assay: VeraTag assay HER3-PI3K complexes in MCF-7 xenograft tumors; type: in vivo, human; conditions: round 1
Experimental: as §7, §5

Akt = assay: Reverse phase protein array (RPPA) in MCF-7 tumor xenografts: Akt; type: in vivo, human; conditions: vs vehicle group, one-way ANOVA; tumors collected at maximum tolerated volume or day 39
Excerpt: (§1) FIG. 9. Reverse phase protein array (RPPA) in MCF-7 tumor xenografts treated with vehicle, MCLA-128, Fulvestrant, Tamoxifen, MCLA-128+ Fulvestrant or MCLA-128+ Tamoxifen. Proteins detected in this assay included (phospho)-Akt and (phospho)-HER3 (full data provided in Appendix 4). One-way ANOVA compared levels in all tumors derived from treatment groups with those derived from the PBS group. ** indicates P<0.01.
(§2) Tumors from groups 1-6 were collected when they had reached the maximum tolerated volume, or at the end of the experiment at day 39, which was 10 days after the last dose. Per treatment group, six tumors were included in the Reverse phase protein array (RPPA). The selection of tumors was made so that the average tumor size of the 6 specimens was close to that of the whole group. RPPA analysis was performed as follows: tumors were sectioned and placed on immunohistochemistry slides. Stromal and inflammatory content was macrodissected to purify for tumors cells. Protein lysates were prepared and protein content was quantified. […] Reverse phase protein array (RPPA) data were analyzed using one-way ANOVA to detect significant differences between the treatment groups and the vehicle group. […] Total ERK levels were increased in the single agent groups only, no differences were measured in the other groups or in the phosphorylated ERK analysis. […]

HER2 = assay: Reverse phase protein array (RPPA) in MCF-7 tumor xenografts: HER2; type: in vivo, human; conditions: vs vehicle group, one-way ANOVA
Excerpt: as §1, §2

HER3 [2] = assay: Reverse phase protein array (RPPA) in MCF-7 tumor xenografts: HER3; type: in vivo, human; conditions: vs vehicle group, one-way ANOVA
Excerpt: as §1, §2

HER3 [3] = conditions: in vitro and in vivo; cited from earlier work
total HER2 = assay: VeraTag assay total HER2 in MCF-7 xenograft tumors; conditions: data from both rounds combined; 8 day treatment
Experimental: as §3, §4, §5, §6

[4] = tested on: human HBCx-34 breast tumor xenograft; assay: Antitumor efficacy in HBCx-34 patient-derived breast cancer xenograft (study XTS-1521); type: in vivo, mouse
Experimental: Antitumor efficacy of an HER2/HER3 targeting antibody was determined in the context of a combination treatment together with an aromatase inhibitor. […] It was used as single agent and in combination with the aromatase inhibitor Letrozole. The hormone-dependent HBCx-34 patient-derived breast cancer xenograft model established in immunodeficient mice was used as an example of a breast cancer.
The HBCx-34 PDX model was derived from a treatment-naïve primary breast infiltrating ductal carcinoma.
Tumor-bearing mice received estrogen diluted in drinking water (β-oestradiol, 8.5 mg/l), from the date of tumor implant to the date of inclusion. During the treatment period, mice were not supplemented with estrogen.
Tumors of the same passage were transplanted subcutaneously onto 6-24 mice (donor mice, passage (n−1)). When these tumors reached 1000 to 2000 mm^3, donor mice were sacrificed by cervical dislocation, tumors were aseptically excised and dissected. After removing necrotic areas, tumors were cut into fragments measuring approximately 20 mm^3 and transferred in culture medium before grafting.
95 mice were anaesthetized with 100 mg/kg ketamine hydrochloride (batch 5D92, Exp: 2017/03, Virbac) and 10 mg/kg xylazine (batch KP0AX9X, Exp: 2017/08, Bayer), and then skin was aseptized with a chlorhexidine solution, incised at the level of the interscapular region, and a 20 mm^3 tumor fragment was placed in the subcutaneous tissue. Skin was closed with clips. All mice from the same experiment were implanted on the same day.
Treatments were randomly attributed to boxes housing up to 5 mice and were initiated 36 days post implantation of the tumor (42% inclusion rate). The study was terminated following 57 days after the start of treatment.
Tumor volume was evaluated by measuring tumor diameters, with a calliper, biweekly during the experimental period.
The formula TV (mm3)=[length (mm)×width (mm)2]/2 was used, where the length and the width are the longest and the shortest diameters of the tumor, respectively.
A total of 4 groups were used as summarized in the scheme below. Each group initially included 10 mice.
All treatment doses were body weight adjusted at each injection.

[5] = tested on: total HER2, total HER3, HER2:HER3 dimers, HER3-PI3K complexes and phosphorylated HER3; assay: VeraTag assays (five assays) on MCF-7 xenograft tumors; type: in vivo, human; conditions: round 1, 3 tumors per group
Experimental: Xenograft mice were treated for 8 days with a total of 3 doses of MCLA-128 or 2 doses of Fulvestrant or the combination thereof. 24 hours after the last dose, tumors were harvested, processed to FFPE and subjected to VeraTag analysis for the indicated assays. Five independent tumors per treatment group were used for the final analysis. A statistical t-test compared all groups independently. * indicates P<0.01.
as §7, §5

[6] = tested on: cells stimulated with high concentrations of heregulin (HRG); assay: In vitro potency in heregulin-stimulated cells; type: cell-based
[7] = MCLA-128 25 mg/kg i.p., Letrozole […] p.o. qdx57
Experimental: All animals were weighed biweekly during the experimental period.
Toxicity of the different treatments was determined as: body weight loss percent (% BWL)=100−(mean BWx/mean BW0×100), where BWx is the mean BW at any day during the treatment and BW0 is the mean BW on the 1st day of treatment.

[8] = MCLA-128 25 mg/kg IP, Letrozole […] PO qdx57

## C[C@]12CC[C@@H]3c4ccc(O)cc4C[C@@H](CCCCCCCCC[S+]([O-])CCCC(F)(F)C(F)(F)F)[C@H]3[C@@H]1CC[C@@H]2O (stereo partly drawn) [Fulvestrant]
[1]
  % TGI (tumor growth inhibition): 52%
  median tumor volume: 288 mm3
  P relative to the control group: < 0.001
  anti-tumor efficacy / survival benefit (in words): significantly reduced tumor growth
[1]; listed as Faslodex®
  Volume (mm^3) of xenograft MCF-7 tumors: 196 mm^3 (3×) and 172 mm^3 and 144 mm^3
  Weight (mgs) of xenograft MCF-7 tumors: 137.9 mgs and 140.1 mgs and 174.4 mgs and 119.7 mgs and 117.3 mgs
HER2:HER3 dimers; data from both rounds combined, 8 day treatment
  HER2:HER3 dimerization (VeraTag): significantly induced HER2:HER3 dimerization compared to vehicle; also recorded: induces the formation of HER2:HER3 dimers
HER2:HER3 dimers; round 1, 3 tumors per group
  HER2:HER3 dimers (VeraTag): significantly upregulated the formation of HER2:HER3 dimers
Total HER3
  HER3 expression (VeraTag): slight increase in HER3
Phosphorylated HER3
  phospho HER3 assay (VeraTag): no significant effect
HER3-PI3K complexes
  HER3-PI3K assay (VeraTag): no significant effect
Akt
  Total and phosphorylated Akt levels (RPPA): increased
HER2
  Total HER2 levels (RPPA): significantly increased
HER3 [2]
  HER3 total levels (RPPA): significantly increased
HER3 [3]
  HER3 expression in MCF-7 cells: upregulate HER3 expression
Total HER2
  HER2 expression levels (VeraTag): significantly higher than in the MCLA-128 single or combined treatment groups; also recorded: significantly higher levels of HER2 expression

## MCLA-128: ADCC-enhanced IgG1 bispecific antibody that targets the HER2:HER3 dimer
[4]; [8]
  Best T/C %: 91.14%
  Best TGE %: 31.59%
  T/C % (at control group day end): 101.56%
  TGI % (at control group day end): 4.87%
  median TGD × 3 (In days): 48.64 days
[4]; number of complete regressions recorded up to Group Day End
  TFS (Tumor Free Survivor): 0
[4]; number of mice with 0 to 14 mm^3 tumor size during at least 3 consecutive measurements
  CR (complete regression): 0
[4]; number of mice with constant tumor size during at least 6 consecutive measurements
  TS (Tumor Stabilization): 1/9 and 1
[4]; number of mice with tumor size lower than initial during at least 6 consecutive measurements
  PR (partial regression): 1/9 and 1
[1]
  % TGI (tumor growth inhibition): 0%
  median tumor volume: 600 mm3
  P relative to the control group: > 0.05
  anti-tumor efficacy / survival benefit (in words): no anti-tumor efficacy as a single agent
  Volume (mm^3) of xenograft MCF-7 tumors: 144 mm^3 and 256 mm^3 and 221 mm^3 and 288 mm^3 and 320 mm^3
  Weight (mgs) of xenograft MCF-7 tumors: 120.5 mgs and 98.2 mgs and 135.5 mgs and 134 mgs and 207.7 mgs
[5]
  effect in any of the VeraTag assays relative to vehicle: no significant effect
[6]
  in vitro potency: superior to other anti-HER2 and anti-HER3 antibodies
[7]
  tolerability (in words): well tolerated
[7]; day of maximum as in text
  maximum individual body weight loss: 8.3%
  maximum mean body weight loss: 0.4%
